According to PubChem BioAssay (NCI):
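Interpolation was linear, between the two tested concentrations surrounding the appropriate level; five concentrations were tested over 48 hours in 96-well plates. The concentration for full growth arrest is given as TGI.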

Assays:
Assay in all cases: NCI-60 cell line screen, 48 h
A549 NSCLC = tested on: A549 NSCLC
ACHN renal = tested on: ACHN renal
CCRF-CEM leukemia = tested on: CCRF-CEM leukemia
COLO 205 colon = tested on: COLO 205 colon
DLD-1 colon = tested on: DLD-1 colon
DMS 114 small cell lung = tested on: DMS 114 small cell lung
DMS 273 small cell lung = tested on: DMS 273 small cell lung
EKVX NSCLC = tested on: EKVX NSCLC
HCC-2998 colon = tested on: HCC-2998 colon
HCT-116 colon = tested on: HCT-116 colon
HCT-15 colon = tested on: HCT-15 colon
HL-60(TB) leukemia = tested on: HL-60(TB) leukemia
HOP-62 NSCLC = tested on: HOP-62 NSCLC
HT29 colon = tested on: HT29 colon
IGROV1 ovarian = tested on: IGROV1 ovarian
K-562 leukemia = tested on: K-562 leukemia
KM12 colon = tested on: KM12 colon
KM20L2 colon = tested on: KM20L2 colon
LOX IMVI melanoma = tested on: LOX IMVI melanoma
LXFL 529 NSCLC = tested on: LXFL 529 NSCLC
M14 melanoma = tested on: M14 melanoma
M19-MEL melanoma = tested on: M19-MEL melanoma
MOLT-4 leukemia = tested on: MOLT-4 leukemia
NCI-H226 lung = tested on: NCI-H226 lung
NCI-H23 lung = tested on: NCI-H23 lung
NCI-H460 lung = tested on: NCI-H460 lung
OVCAR-3 ovarian = tested on: OVCAR-3 ovarian
OVCAR-4 ovarian = tested on: OVCAR-4 ovarian
OVCAR-5 ovarian = tested on: OVCAR-5 ovarian
OVCAR-8 ovarian = tested on: OVCAR-8 ovarian
RPMI-8226 leukemia = tested on: RPMI-8226 leukemia
RXF 393 renal = tested on: RXF 393 renal
SF-268 CNS = tested on: SF-268 CNS
SF-295 CNS = tested on: SF-295 CNS
SF-539 CNS = tested on: SF-539 CNS
SK-MEL-28 melanoma = tested on: SK-MEL-28 melanoma
SK-MEL-5 melanoma = tested on: SK-MEL-5 melanoma
SK-OV-3 ovarian = tested on: SK-OV-3 ovarian
SN12C renal = tested on: SN12C renal
SNB-19 CNS = tested on: SNB-19 CNS
SNB-75 CNS = tested on: SNB-75 CNS
SNB-78 CNS = tested on: SNB-78 CNS
SR leukemia = tested on: SR leukemia
SW-620 colon = tested on: SW-620 colon
TK-10 renal = tested on: TK-10 renal
U251 CNS = tested on: U251 CNS
UACC-257 melanoma = tested on: UACC-257 melanoma
UACC-62 melanoma = tested on: UACC-62 melanoma
UO-31 renal = tested on: UO-31 renal
XF 498 CNS = tested on: XF 498 CNS
786-0 renal = tested on: 786-0 renal
HOP-18 NSCLC = tested on: HOP-18 NSCLC
MALME-3M melanoma = tested on: MALME-3M melanoma
NCI-H522 lung = tested on: NCI-H522 lung
SK-MEL-2 melanoma = tested on: SK-MEL-2 melanoma

Measured: TGI

CC1(C)OC2C(CO)OC(/N=C(\NC#N)Oc3ccccc3)C2O1 (configuration not stated)
not listed: 786-0 renal | HOP-18 NSCLC | MALME-3M melanoma | NCI-H522 lung | SK-MEL-2 melanoma
> 100 µM: all other assays above

CCOc1ccccc1NC(=O)C(=O)C1C(=O)Nc2ccccc2S1=O (configuration not stated)
> 100 µM: 786-0 renal | A549 NSCLC | CCRF-CEM leukemia | DMS 114 small cell lung | DMS 273 small cell lung | HCC-2998 colon | HCT-116 colon | HCT-15 colon | HL-60(TB) leukemia | HOP-18 NSCLC | K-562 leukemia | LXFL 529 NSCLC | M14 melanoma | MALME-3M melanoma | MOLT-4 leukemia | NCI-H460 lung | NCI-H522 lung | OVCAR-3 ovarian | RPMI-8226 leukemia | RXF 393 renal | SF-268 CNS | SK-MEL-2 melanoma | SK-MEL-28 melanoma | SK-OV-3 ovarian | SNB-78 CNS | U251 CNS | UO-31 renal
